According to the NIST ThermoML archive (doi:10.1021/acs.jced.5b01000):

Legend:
[1] = refractive index (Na D-line) (dimensionless); settings: 99 kPa, Liquid, Standard Abbe refractometry
[2] = 99 kPa, Liquid; for viscosity: Capillary tube (Ostwald / Ubbelohde) method; for speed of sound: Frequency=3 MHz, Sing-around technique in a fixed-path interferometer; for mass density: Vibrating tube method
[3] = refractive index (Na D-line) (dimensionless); xn = mol fraction of the nth substance listed; settings: 99 kPa, Liquid, Standard Abbe refractometry, x2 = 0
[4] = xn = mol fraction of the nth substance listed; settings: 99 kPa, Liquid, x2 = 0; for viscosity: Capillary tube (Ostwald / Ubbelohde) method; for speed of sound: Frequency=3 MHz, Sing-around technique in a fixed-path interferometer; for mass density: Vibrating tube method

CO [methanol]
Settings	mass density, [2] [kg/m3]	refractive index, [1]	speed of sound, [2] [m/s]	viscosity, [2] [mPa·s]
283.15 K	800.707	1.33282	1152.7	0.677
298.15 K	786.611	1.32636	1104.2	0.5449
313.15 K	772.31	1.32013	1054.5	0.4441

CCO [ethanol]
Settings	mass density, [2] [kg/m3]	refractive index, [1]	speed of sound, [2] [m/s]	viscosity, [2] [mPa·s]
283.15 K	797.878	1.36529	1194.5	1.444
298.15 K	785.054	1.35913	1143.2	1.079
313.15 K	772.5	1.35275	1092.4	0.8235

CC(=O)N(C)C [N,N-dimethylethanamide]
Settings	mass density, [2] [kg/m3]	refractive index, [1]	speed of sound, [2] [m/s]	viscosity, [2] [mPa·s]
283.15 K	950.131	1.44273	1516.8	1.168
298.15 K	936.289	1.43579	1453.7	0.9299
313.15 K	922.429	1.42901	1393.3	0.7644

CCO [ethanol] + CC(=O)N(C)C
Settings	mass density, [4] [kg/m3]	refractive index, [3]	speed of sound, [4] [m/s]	viscosity, [4] [mPa·s]
283.15 K	797.878	1.36529	1194.5	1.444
298.15 K	785.054	1.35913	1143.2	1.079
313.15 K	772.5	1.35275	1092.4	0.8235

CO [methanol] + CC(=O)N(C)C
Settings	mass density, [4] [kg/m3]	refractive index, [3]	speed of sound, [4] [m/s]	viscosity, [4] [mPa·s]
283.15 K	800.707	1.33282	1152.7	0.677
298.15 K	786.611	1.32636	1104.2	0.5449
313.15 K	772.31	1.32013	1054.5	0.4441
